This is an account of results in patent US20190038714A1, “ANTI-INFLAMMATORY COMPOSITION COMPRISING CLAVASPIRIN PEPTIDE ANALOGUE AS EFFECTIVE INGREDIENT” (INDUSTRY-ACADEMIC COOPERATION FOUNDATION, CHOSUN UNIVERSITY, priority 2015, published 2019).

Ends that are not written are not given here.

Data set [1] relates to Bacillus subtilis, KCTC 1918. In words: Growth minimum inhibitory concentration (MIC), microtiter broth dilution. In kind it is cell-based. The note with it: B. subtilis; 12 hours at 37° C. The text has this:
(§1) To compare the antimicrobial activity of the peptide produced by the method of Example 1, the inventors of the present invention measured the growth minimum inhibitory concentration (MIC), which is minimum concentration of the peptide showing no dissociation of bacterial cells.
(§2) Specifically, E. coli (Escherichia coli, ATCC 25922), and P. aeruginosa (Pseudomonas aeruginosa, ATCC 15692), S. typhimurium (Salmonella typhimurium, KTCC 1926), and P. vulgaris (Proteus vulgaris, KCTC 2433 as Gram-negative bacteria, and S. aureus (Staphylococcus aureus, ATCC 25923), L. monocytogenes (Listeria monocytogenes, ATCC 19115), B. subtilis (Bacillus subtilis, KCTC 1918), and S. epidermidis (Staphylococcus epidermidis, KCTC 3096) as Gram-positive bacteria were used after obtaining them from American Type Culture Collection (ATCC) or Korean Cell Line Bank. Each bacterial cell line was cultured in LB medium (1% bacto tryptone, 0.5% bacto yeast extract, and 1% sodium chloride; Sigma, USA) to a mid-log phase at pH of 5.5 or 7.4. After that, the cells were diluted in 1% bacto peptone medium (Difco, USA) to have cell body concentration of 5×10^5 cells/100 μl, and then inoculated to a microtiter plate (NUNC, USA). Thereafter, each of CSP-4 peptide synthesized in Example 1 above and the mother peptide was diluted, 1/2 times for each, at pH of 5.5 or 7.4 in a 96-well plate. After adding the cells to the plate, the cells were cultured for 12 hours at 37° C. Then, the absorbance was measured at a wavelength of 620 nm by using a microtiter plate reader (Merck Elisa reader, Germany) to determine the MIC value of each bacterial strain.

The test system of data set [2] is Escherichia coli, ATCC 25922. The description is as above. The note with it: 12 hours at 37° C., pH of 5.5 or 7.4 (not given). In kind it is cell-based.
Description: as §1, §2

The subject of data set [3] is Listeria monocytogenes, ATCC 19115. The description is as above. In kind it is cell-based. The note with it: L. monocytogenes; 12 hours at 37° C.
Description: as §1, §2

The test system of data set [4] is Proteus vulgaris, KCTC 2433. Described as above. In kind it is cell-based. The note with it: P. vulgaris; 12 hours at 37° C.
Description: as §1, §2

The subject of data set [5] is Pseudomonas aeruginosa, ATCC 15692. The data set is described as above. In kind it is cell-based. The following applies: P. aeruginosa; 12 hours at 37° C.
Description: as §1, §2

Data set [6] concerns Salmonella typhimurium, KTCC 1926. The data set is described as above. In kind it is cell-based. The following applies: S. typhimurium; 12 hours at 37° C.
Description: as §1, §2

The subject of data set [7] is Staphylococcus aureus, ATCC 25923. The description is as above. In kind it is cell-based. The following applies: S. aureus; 12 hours at 37° C.
Description: as §1, §2

Data set [8] deals with Staphylococcus epidermidis, KCTC 3096. The description is as above. In kind it is cell-based. The note with it: S. epidermidis; 12 hours at 37° C.
Description: as §1, §2

The subject of a further data set is human erythrocyte. As to the kind of experiment: Erythrocyte hemolytic activity. In kind it is cell-based. The following applies: for Erythrocyte disrupting ability %: 1 hour at 37° C., Triton X-100 = 100%. The method, then: To compare the cytotoxicity among the peptides that are produced by the method of Example 1, erythrocyte hemolytic activity of the synthesized peptide was measured.
Specifically, human erythrocyte was diluted in physiological saline (PBS, pH 7.0) to have concentration of 8%, and clavaspirin, CSP-4, and melittin peptide were serially diluted (i.e., dilution to 1/2 concentration from higher concentration for each dilution) followed by reaction for 1 hour at 37° C. After that, the amount of hemoglobin contained in a supernatant collected by centrifuge at 1,000×g was determined by measuring the absorbance at a wavelength of 414 nm. As a control group to be used as a reference for cell disruption level, the supernatant collected by a treatment with 1% Triton X-100 (Sigma, USA) and a reaction for 1 hour at 37° C. was used for absorbance measurement. By setting the erythrocyte hemolytic activity of Triton X-100 at 100%, the hemolytic activity of the above peptides was calculated using the following mathematical equation 1.
Erythrocyte disrupting ability (hemolysis) (%)=(Absorbance A−Absorbance B)/(Absorbance C−Absorbance B)×100 [Mathematical equation 1]
(in the above equation, Absorbance A indicates the absorbance of a reaction solution treated with each peptide, in which the absorbance is measured at a wavelength of 414 nm; Absorbance B indicates the absorbance of a reaction solution treated with PBS, in which the absorbance is measured at a wavelength of 414 nm; and Absorbance C indicates the absorbance of a reaction solution treated with 1% Triton X-100, in which the absorbance is measured at a wavelength of 414 nm).

Another data set concerns S. aureus. The note with it: 24 hours at 37° C.
The subject of a further data set is S. aureus MRSA 3126. The following applies: 24 hours at 37° C.
Another data set concerns S. aureus MRSA 0027. The following applies: 24 hours at 37° C.
The next data set deals with S. aureus MRSA 1635. The following applies: 24 hours at 37° C.
The test system of another data set is S. aureus MRSA 4761. The following applies: 24 hours at 37° C.
Another data set deals with S. aureus MRSA 3-359. The following applies: 24 hours at 37° C.
A further data set has as its system S. aureus MRSA 2-122. The following applies: 24 hours at 37° C.
A further data set concerns S. aureus MRSA 1630. The following applies: 24 hours at 37° C.
The next data set concerns S. aureus MRSA 1870. The following applies: 24 hours at 37° C.

As to “FLRFIGSVIHGIGHLVHHIGVAL-NH2 [Clavaspirin]”, the “Growth minimum inhibitory concentration” value is 16 µM in [1]; 2 µM in data set [2]; 16 µM in data set [3]; 8 µM in data set [4]; 32 µM in data set [5]; 32 µM in data set [6]. In addition, the “Growth minimum inhibitory concentration” value in [7] turned out to be 16 µM; in data set [8], 4 µM. In addition, the “Erythrocyte disrupting ability %” value in the data set with human erythrocyte (peptide 25 μM), in the data set on human erythrocyte (peptide 50 μM), in the data set on human erythrocyte (peptide 100 μM), in the data set with human erythrocyte (peptide 200 μM) and in the data set on human erythrocyte (peptide 400 μM) was 100% each time. In addition, the MIC was 16 µM in the data set on S. aureus; 16 µM in the data set with S. aureus MRSA 3126; 16 µM with S. aureus MRSA 0027; 16 µM against S. aureus MRSA 1635; 32 µM in the data set on S. aureus MRSA 4761; 16 µM against S. aureus MRSA 3-359. Moreover, the MIC in the data set on S. aureus MRSA 2-122, in the data set with S. aureus MRSA 1630 and against S. aureus MRSA 1870 was 8 µM in each case.
Regarding FLRFIGSVKHGKGHLVHHIGVAL-NH2 [CSP-4], the “Growth minimum inhibitory concentration” value in [1] was determined as 4 µM; in [2], 2 µM; in [3], 4 µM; in data set [4], 4 µM; in data set [5], 32 µM; in data set [6], 64 µM. In addition, the “Growth minimum inhibitory concentration” value stood at 8 µM in data set [7] and 4 µM in data set [8]. In addition, in the data set on human erythrocyte (at 500 μg/ml), the “hemolysis (FIG. 1)” value is given as “less than 1%”. In the data set with human erythrocyte (concentration of 200 μM or less), the hemolytic activity result is reported as “almost no hemolytic activity”. The “Erythrocyte disrupting ability %” value in the data set on human erythrocyte (peptide 25 μM) is recorded as 0%; in the data set with human erythrocyte (peptide 50 μM), 0%; with human erythrocyte (peptide 100 μM), 0%; in the data set on human erythrocyte (peptide 200 μM), 1%; with human erythrocyte (peptide 400 μM), 10%. Besides, the MIC in the data set on S. aureus, against S. aureus MRSA 3126, against S. aureus MRSA 0027, in the data set on S. aureus MRSA 1635, against S. aureus MRSA 4761 and in the data set with S. aureus MRSA 3-359 was 8 µM each time. Further, the MIC against S. aureus MRSA 2-122, with S. aureus MRSA 1630 and against S. aureus MRSA 1870 was 8 µM in each case.
